For test [1], the target named is T1, Acyl-homoserine lactone acylase PvdQ (Pseudomonas aeruginosa (strain LESB58), UniProt Q9I194).
T1 sequence (Q9I194 whole entry): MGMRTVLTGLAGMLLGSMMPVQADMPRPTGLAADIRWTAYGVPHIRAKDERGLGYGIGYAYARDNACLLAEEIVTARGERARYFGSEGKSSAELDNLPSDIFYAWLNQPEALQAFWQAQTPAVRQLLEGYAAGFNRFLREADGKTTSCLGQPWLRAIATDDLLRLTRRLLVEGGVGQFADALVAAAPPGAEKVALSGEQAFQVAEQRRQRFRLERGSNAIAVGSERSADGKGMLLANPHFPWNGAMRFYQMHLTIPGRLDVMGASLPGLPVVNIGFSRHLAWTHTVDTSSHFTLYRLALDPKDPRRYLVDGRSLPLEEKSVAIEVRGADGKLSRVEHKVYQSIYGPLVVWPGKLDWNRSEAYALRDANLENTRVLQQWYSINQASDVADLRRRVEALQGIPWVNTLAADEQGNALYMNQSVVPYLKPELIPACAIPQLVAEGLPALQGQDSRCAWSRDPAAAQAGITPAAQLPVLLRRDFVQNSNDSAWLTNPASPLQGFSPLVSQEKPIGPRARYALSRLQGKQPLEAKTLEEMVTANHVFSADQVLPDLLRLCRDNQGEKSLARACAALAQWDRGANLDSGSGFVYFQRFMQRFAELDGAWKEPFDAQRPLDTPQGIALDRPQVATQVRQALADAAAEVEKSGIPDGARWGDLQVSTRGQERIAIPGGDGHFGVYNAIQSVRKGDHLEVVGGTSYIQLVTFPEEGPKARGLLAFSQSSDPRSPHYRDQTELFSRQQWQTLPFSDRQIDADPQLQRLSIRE
Kind of test: PvdQ acylase enzyme activity blockers – biochemical, fluorescence, plate reader and imaging, cherry-picks, dose response (AID 493231).

In test [2] the target is T2, Fatty acid synthase (Homo sapiens, UniProt P49327). Kind of test: inhibition of human FAS-TE enzyme activity – biochemical, kinetic fluorescence intensity, dose response (AID 624326).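 Also: rate of fluorescence rise from hydrolysis of a fluorogenic O-methyl fluorescein ester substrate.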 The class given is functional.
T2 sequence (P49327 whole entry): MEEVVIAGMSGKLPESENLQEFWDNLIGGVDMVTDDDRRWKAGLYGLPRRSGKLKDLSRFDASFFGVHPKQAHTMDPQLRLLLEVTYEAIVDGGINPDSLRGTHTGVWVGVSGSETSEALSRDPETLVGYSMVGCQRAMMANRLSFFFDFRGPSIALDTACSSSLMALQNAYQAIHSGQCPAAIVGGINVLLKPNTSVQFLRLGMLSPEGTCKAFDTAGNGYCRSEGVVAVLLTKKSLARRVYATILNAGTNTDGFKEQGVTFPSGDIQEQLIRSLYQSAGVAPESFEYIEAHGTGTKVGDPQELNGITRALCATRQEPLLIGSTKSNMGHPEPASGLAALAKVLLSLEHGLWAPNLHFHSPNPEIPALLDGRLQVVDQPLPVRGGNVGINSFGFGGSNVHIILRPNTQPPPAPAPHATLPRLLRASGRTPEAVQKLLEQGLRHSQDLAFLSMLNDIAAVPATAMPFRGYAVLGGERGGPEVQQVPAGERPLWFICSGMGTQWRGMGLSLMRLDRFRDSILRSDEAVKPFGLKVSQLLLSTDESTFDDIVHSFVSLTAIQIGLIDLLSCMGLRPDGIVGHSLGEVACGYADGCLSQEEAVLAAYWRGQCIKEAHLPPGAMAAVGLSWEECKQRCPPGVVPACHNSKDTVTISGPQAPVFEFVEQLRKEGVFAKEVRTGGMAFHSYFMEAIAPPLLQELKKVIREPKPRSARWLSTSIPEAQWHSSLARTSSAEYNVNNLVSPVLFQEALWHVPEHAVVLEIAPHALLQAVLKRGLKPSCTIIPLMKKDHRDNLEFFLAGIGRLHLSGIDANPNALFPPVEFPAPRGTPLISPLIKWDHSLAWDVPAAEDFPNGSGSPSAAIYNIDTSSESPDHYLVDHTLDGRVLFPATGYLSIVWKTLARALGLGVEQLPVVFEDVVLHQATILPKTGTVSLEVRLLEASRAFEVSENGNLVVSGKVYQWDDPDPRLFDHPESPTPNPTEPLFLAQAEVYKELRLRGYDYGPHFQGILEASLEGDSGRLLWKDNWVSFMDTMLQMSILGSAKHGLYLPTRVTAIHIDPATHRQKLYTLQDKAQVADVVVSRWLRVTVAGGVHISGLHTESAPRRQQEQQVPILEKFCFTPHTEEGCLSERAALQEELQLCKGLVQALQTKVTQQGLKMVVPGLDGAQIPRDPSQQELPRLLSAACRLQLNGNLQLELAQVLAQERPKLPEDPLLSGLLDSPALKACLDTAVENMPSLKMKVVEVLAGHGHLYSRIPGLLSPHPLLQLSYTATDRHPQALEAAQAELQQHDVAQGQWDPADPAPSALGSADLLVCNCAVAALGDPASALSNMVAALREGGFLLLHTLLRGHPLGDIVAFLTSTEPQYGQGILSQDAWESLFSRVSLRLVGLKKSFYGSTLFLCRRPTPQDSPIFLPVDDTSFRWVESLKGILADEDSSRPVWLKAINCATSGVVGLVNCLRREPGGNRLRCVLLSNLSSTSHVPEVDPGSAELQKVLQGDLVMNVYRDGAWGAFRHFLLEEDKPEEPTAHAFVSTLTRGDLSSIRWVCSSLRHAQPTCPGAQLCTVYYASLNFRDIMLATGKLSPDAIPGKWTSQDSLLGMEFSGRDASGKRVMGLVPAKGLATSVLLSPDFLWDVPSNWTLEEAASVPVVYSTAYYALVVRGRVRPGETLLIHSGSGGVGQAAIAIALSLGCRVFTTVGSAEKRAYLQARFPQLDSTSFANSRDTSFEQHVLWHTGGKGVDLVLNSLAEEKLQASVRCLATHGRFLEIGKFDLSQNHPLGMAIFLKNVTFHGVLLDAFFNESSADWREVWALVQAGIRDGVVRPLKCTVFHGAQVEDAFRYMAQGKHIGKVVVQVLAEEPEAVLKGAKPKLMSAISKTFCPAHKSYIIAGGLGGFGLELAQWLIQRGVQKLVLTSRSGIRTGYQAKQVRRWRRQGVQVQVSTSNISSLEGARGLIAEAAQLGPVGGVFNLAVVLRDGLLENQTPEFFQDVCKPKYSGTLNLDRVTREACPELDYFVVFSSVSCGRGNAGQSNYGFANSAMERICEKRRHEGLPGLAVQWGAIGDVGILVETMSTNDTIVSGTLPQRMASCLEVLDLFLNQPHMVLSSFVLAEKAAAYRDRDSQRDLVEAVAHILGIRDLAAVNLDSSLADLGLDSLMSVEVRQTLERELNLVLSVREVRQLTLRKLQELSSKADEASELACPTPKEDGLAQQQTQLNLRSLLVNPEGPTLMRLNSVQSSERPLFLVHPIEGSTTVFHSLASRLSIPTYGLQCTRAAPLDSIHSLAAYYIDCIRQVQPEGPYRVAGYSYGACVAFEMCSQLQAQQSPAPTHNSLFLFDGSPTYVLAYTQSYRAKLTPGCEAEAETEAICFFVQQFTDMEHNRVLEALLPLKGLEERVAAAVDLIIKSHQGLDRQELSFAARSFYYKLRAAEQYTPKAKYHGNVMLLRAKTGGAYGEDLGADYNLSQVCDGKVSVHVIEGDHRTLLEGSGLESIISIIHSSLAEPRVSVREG
Test [3] is described as follows: Intein inhibitors as potential Tuberculosis drugs, a cytotoxicity screen. [Related pubchem assays (depositor defined):AID2221, AID2223, AID434968, AID435010, AID449749, AID449750, AID489010]. Format: functional.
The target in test [4] is T2, Fatty acid synthase. Kind of test: inhibition of human FAS-TE enzyme activity – biochemical, endpoint fluorescence intensity, uHTS hits, dose response (AID 624327).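 Also: fluorescence from hydrolysis of an O-methyl fluorescein acyl ester substrate by the enzyme.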 Format: functional.
Test [5] concerns the target T3, Protein RecA (Mycobacterium tuberculosis, UniProt P9WHJ3).
T3 sequence (P9WHJ3 whole entry): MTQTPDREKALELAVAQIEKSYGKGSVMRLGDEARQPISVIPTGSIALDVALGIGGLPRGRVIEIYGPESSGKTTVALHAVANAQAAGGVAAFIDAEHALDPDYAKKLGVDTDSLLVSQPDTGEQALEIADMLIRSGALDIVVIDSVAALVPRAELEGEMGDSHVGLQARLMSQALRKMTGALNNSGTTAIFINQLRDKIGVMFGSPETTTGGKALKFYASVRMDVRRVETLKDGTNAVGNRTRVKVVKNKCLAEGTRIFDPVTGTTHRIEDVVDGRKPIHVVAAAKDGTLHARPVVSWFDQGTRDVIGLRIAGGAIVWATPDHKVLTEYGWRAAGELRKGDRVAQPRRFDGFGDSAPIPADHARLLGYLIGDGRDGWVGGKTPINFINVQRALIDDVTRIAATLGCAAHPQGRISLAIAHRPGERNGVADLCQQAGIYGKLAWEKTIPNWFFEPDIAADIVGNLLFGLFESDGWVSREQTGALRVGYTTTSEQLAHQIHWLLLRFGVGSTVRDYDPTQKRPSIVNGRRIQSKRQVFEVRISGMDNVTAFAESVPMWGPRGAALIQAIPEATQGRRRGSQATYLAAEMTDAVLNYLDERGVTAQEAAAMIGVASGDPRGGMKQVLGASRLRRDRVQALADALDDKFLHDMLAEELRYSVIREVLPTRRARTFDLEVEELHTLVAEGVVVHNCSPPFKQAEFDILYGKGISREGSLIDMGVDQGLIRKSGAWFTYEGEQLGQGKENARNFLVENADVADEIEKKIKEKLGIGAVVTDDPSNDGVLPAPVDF
Put plainly: Fluorescence Cell-Free Homogeneous Dose Retest to Identify Inhibitors of RecA-Intein Splicing Activity. [Related pubchem assays (depositor defined):AID2097, AID2223, AID489010, AID492950]. The class given is functional.

The target of test [6] is T4, Replicative DNA helicase DnaB (Mycobacterium tuberculosis, UniProt P9WMR3).
T4 sequence (P9WMR3 whole entry): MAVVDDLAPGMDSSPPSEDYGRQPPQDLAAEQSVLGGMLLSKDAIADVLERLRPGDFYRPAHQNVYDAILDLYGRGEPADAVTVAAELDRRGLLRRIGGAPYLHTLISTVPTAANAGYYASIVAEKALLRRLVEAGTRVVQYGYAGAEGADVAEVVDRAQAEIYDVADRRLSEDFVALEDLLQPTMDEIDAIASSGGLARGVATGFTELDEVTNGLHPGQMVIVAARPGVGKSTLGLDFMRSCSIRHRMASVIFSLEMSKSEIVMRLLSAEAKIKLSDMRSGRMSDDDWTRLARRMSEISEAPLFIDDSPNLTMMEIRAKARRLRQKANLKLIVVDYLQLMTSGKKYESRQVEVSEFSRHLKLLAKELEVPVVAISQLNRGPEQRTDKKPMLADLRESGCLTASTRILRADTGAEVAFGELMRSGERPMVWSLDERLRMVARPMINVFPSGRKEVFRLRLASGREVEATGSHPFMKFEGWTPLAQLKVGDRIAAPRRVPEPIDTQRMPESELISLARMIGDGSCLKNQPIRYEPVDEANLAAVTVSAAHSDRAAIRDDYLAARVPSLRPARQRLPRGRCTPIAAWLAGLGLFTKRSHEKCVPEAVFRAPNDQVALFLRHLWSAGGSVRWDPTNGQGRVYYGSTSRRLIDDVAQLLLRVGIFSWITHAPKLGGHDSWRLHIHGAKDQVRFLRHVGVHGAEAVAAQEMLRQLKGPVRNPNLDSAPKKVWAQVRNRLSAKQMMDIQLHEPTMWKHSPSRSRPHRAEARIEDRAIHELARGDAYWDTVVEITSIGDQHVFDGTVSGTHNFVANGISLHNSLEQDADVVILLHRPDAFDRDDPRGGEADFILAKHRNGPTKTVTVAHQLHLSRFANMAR
Put plainly: DnaB intein splicing inhibitors, dose response, biochemical, cell-free fluorescence (AID 449749). The class given is functional.

Test [7] concerns the target T5, Heat shock factor protein 1 (Mus musculus, UniProt P38532).
T5 sequence (P38532 whole entry): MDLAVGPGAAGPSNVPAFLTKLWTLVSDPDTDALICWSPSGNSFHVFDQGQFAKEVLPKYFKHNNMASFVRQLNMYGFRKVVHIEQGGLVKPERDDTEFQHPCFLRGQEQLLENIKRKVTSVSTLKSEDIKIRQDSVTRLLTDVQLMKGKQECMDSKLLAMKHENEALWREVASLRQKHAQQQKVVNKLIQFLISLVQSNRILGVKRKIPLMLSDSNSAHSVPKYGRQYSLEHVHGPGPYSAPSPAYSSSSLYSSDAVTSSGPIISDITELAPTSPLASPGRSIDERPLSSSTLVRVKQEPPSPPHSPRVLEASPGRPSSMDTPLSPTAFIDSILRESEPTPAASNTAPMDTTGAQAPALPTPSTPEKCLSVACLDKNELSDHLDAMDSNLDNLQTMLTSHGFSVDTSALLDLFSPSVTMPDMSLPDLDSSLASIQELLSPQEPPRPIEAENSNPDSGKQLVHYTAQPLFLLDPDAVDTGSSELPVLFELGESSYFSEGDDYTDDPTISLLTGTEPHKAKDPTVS
Kind of test: enhancement of HSF1-driven luciferase signal – cell-based, NIH3T3, luminescence, dose retest, confirmation (AID 435004).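 Also: stress induced by proteasome inhibitor MG132 added 30 min after compound; luciferase reporter driven by HSF1 response element in NIH3T3 cells; actives raise luminescence as potentiators of the MG132 stress response.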 Format: functional.

Calls of active or inactive are those of the source. Some results are limits rather than exact numbers.
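For CC50 in this document: cells exposed to compound for 72 hours before luminescence readout.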

Consider `Cn1cccc1C(C#N)c1ccccc1C#N` (stereo not drawn), for which the AC50 (as a rule, the midpoint of the concentration-response curve, whichever way the signal moves) in test [1] was 7.71 µM (active).

`COC(=O)c1ccc(OC(=O)c2cccs2)cc1`: the AC50 in test [1] is 7.15 µM (active).

Turning to `CC(CCc1ccccc1)NC(=O)COC(=O)c1cc(NS(=O)(=O)c2ccc(Cl)c([N+](=O)[O-])c2)ccc1O` (stereo not drawn), the IC50 (usually the concentration at which inhibition is half-maximal) in test [2] is 6.97 µM (active); in test [4], 11.1 µM (active). Also, in test [3], the CC50 (in general, the concentration giving 50% cytotoxicity) is 32.9 µM (active). The EC50 (commonly the concentration needed to bring the measured effect to its halfway point) in test [5] was 2.95 µM (active). Besides, the AC50 in test [6] was 3.63 µM (active).

In the case of `CCC(=O)c1ccc(OC(=O)c2cccs2)cc1`, the AC50 in test [1] was > 100 µM (inactive).

For the compound `COc1ccc(N2CCN(C(=O)c3ccc(Br)o3)CC2)cc1`, the AC50 in test [1] is 7.33 µM (active).

For `Cc1[nH]n(-c2ccccc2)c(=O)c1C(C[N+](=O)[O-])c1ccc(F)cc1` (stereo not drawn), the values for the EC50 in test [7] and in test [5] were > 260 µM (inactive) and 4.2 µM (active), respectively. In test [3], the cytotoxic concentration (CC50) is > 40 µM (active). The AC50 in test [6] is 0.729 µM (active).
